{"source": "the supplement of paper PMC10307832", "assay_in_all_cases": "relative viability (nuclei count vs DMSO), 5 days (fraction); higher = more cells survive", "key": {"Palbociclib": {"compound": "CC(=O)c1c(C)c2cnc(Nc3ccc(N4CCNCC4)cn3)nc2n(C2CCCC2)c1=O [Palbociclib]", "method_in_brief": "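After an overnight hold at 37 °C, lung cancer cell lines in 1536-well plates were pinned with five library-drug doses (not always all listed), each √10 from the next, on vehicle-anchored plates. The cells stayed 5 days without fresh medium, then a one-step fix, permeabilisation and Hoechst stain preceded 4× imaging and MetaXpress nuclear counts. A plate passed only with control CV under 25% and at least one doubling. Viability is the median, over plates, of treated-well nuclei relative to vehicle-well nuclei.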"}, "Palbociclib + Trametinib": {"compound": "CC(=O)c1c(C)c2cnc(Nc3ccc(N4CCNCC4)cn3)nc2n(C2CCCC2)c1=O [Palbociclib] + CC(=O)Nc1cccc(-n2c(=O)n(C3CC3)c(=O)c3c(Nc4ccc(I)cc4F)n(C)c(=O)c(C)c32)c1 [Trametinib] (partner 0.02 µM)", "method_in_brief": "(§1)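 Cells from lung cancer lines were seeded into 1536-well plates and, one day later, dosed by pin tool. Treatments were either a single drug or a fixed dose of an anchor drug with five library-drug doses (not always all listed) in √10 steps. After 5 days, nuclei were stained in a one-step fixation (final 0.05% Triton X-100, 1% formaldehyde, 1 ug/ml Hoechst) and counted on 4× images, and relative viability is the treated-to-vehicle nuclei ratio, as the median of duplicate plates.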"}, "Palbociclib + Olaparib": {"compound": "CC(=O)c1c(C)c2cnc(Nc3ccc(N4CCNCC4)cn3)nc2n(C2CCCC2)c1=O [Palbociclib] + O=C(c1cc(Cc2n[nH]c(=O)c3ccccc23)ccc1F)N1CCN(C(=O)C2CC2)CC1 [Olaparib] (partner 8 µM)", "method_in_brief": "as §1"}, "Palbociclib + OSI-027": {"compound": "CC(=O)c1c(C)c2cnc(Nc3ccc(N4CCNCC4)cn3)nc2n(C2CCCC2)c1=O [Palbociclib] + COc1cccc2cc(-c3nc([C@H]4CC[C@H](C(=O)O)CC4)n4ncnc(N)c34)[nH]c12 [OSI-027] (partner 0.5 µM)", "method_in_brief": "as §1"}, "Palbociclib + AZD7762": {"compound": "CC(=O)c1c(C)c2cnc(Nc3ccc(N4CCNCC4)cn3)nc2n(C2CCCC2)c1=O [Palbociclib] + NC(=O)Nc1cc(-c2cccc(F)c2)sc1C(=O)N[C@H]1CCCNC1 [AZD7762] (partner 0.2 µM)", "method_in_brief": "as §1"}, "Palbociclib + Tozasertib": {"compound": "CC(=O)c1c(C)c2cnc(Nc3ccc(N4CCNCC4)cn3)nc2n(C2CCCC2)c1=O [Palbociclib] + Cc1cc(Nc2cc(N3CCN(C)CC3)nc(Sc3ccc(NC(=O)C4CC4)cc3)n2)n[nH]1 [Tozasertib] (partner 0.1 µM)", "method_in_brief": "as §1"}, "Palbociclib + Pemetrexed": {"compound": "CC(=O)c1c(C)c2cnc(Nc3ccc(N4CCNCC4)cn3)nc2n(C2CCCC2)c1=O [Palbociclib] + Nc1nc2[nH]cc(CCc3ccc(C(=O)N[C@@H](CCC(=O)O)C(=O)O)cc3)c2c(=O)[nH]1 [Pemetrexed] (partner 0.2 µM)", "method_in_brief": "as §1"}, "Palbociclib + Vorinostat": {"compound": "CC(=O)c1c(C)c2cnc(Nc3ccc(N4CCNCC4)cn3)nc2n(C2CCCC2)c1=O [Palbociclib] + O=C(CCCCCCC(=O)Nc1ccccc1)NO [Vorinostat] (partner 1 µM)", "method_in_brief": "as §1"}, "Palbociclib + Decitabine": {"compound": "CC(=O)c1c(C)c2cnc(Nc3ccc(N4CCNCC4)cn3)nc2n(C2CCCC2)c1=O [Palbociclib] + Nc1ncn([C@H]2C[C@H](O)[C@@H](CO)O2)c(=O)n1 [Decitabine] (partner 2 µM)", "method_in_brief": "as §1"}, "Palbociclib + Luminespib": {"compound": "CC(=O)c1c(C)c2cnc(Nc3ccc(N4CCNCC4)cn3)nc2n(C2CCCC2)c1=O [Palbociclib] + CCNC(=O)c1noc(-c2cc(C(C)C)c(O)cc2O)c1-c1ccc(CN2CCOCC2)cc1 [Luminespib] (partner 0.01 µM)", "method_in_brief": "as §1"}, "Palbociclib + Foretinib": {"compound": "CC(=O)c1c(C)c2cnc(Nc3ccc(N4CCNCC4)cn3)nc2n(C2CCCC2)c1=O [Palbociclib] + COc1cc2c(Oc3ccc(NC(=O)C4(C(=O)Nc5ccc(F)cc5)CC4)cc3F)ccnc2cc1OCCCN1CCOCC1 [Foretinib] (partner 0.25 µM)", "method_in_brief": "as §1"}, "Palbociclib + Dasatinib": {"compound": "CC(=O)c1c(C)c2cnc(Nc3ccc(N4CCNCC4)cn3)nc2n(C2CCCC2)c1=O [Palbociclib] + Cc1nc(Nc2ncc(C(=O)Nc3c(C)cccc3Cl)s2)cc(N2CCN(CCO)CC2)n1 [Dasatinib] (partner 0.075 µM)", "method_in_brief": "as §1"}, "Palbociclib + Phenformin": {"compound": "CC(=O)c1c(C)c2cnc(Nc3ccc(N4CCNCC4)cn3)nc2n(C2CCCC2)c1=O [Palbociclib] + N=C(N)NC(=N)NCCc1ccccc1 [Phenformin] (partner 250 µM)", "method_in_brief": "as §1"}}, "data": [{"cell line": "NCI-H1648", "values": [{"measurement": "relative viability", "setting": "Palbociclib; 0.01 µM", "result": 1.12}, {"measurement": "relative viability", "setting": "Palbociclib; 0.03162 µM", "result": 0.451}, {"measurement": "relative viability", "setting": "Palbociclib; 0.1 µM", "result": 0.667}, {"measurement": "relative viability", "setting": "Palbociclib; 0.3162 µM", "result": 0.764}, {"measurement": "relative viability", "setting": "Palbociclib; 0.5 µM, anchor plate", "result": 0.284}, {"measurement": "relative viability", "setting": "Palbociclib; 1 µM", "result": 0.336}, {"measurement": "relative viability", "setting": "Palbociclib + Trametinib; first compound 0.01 µM", "result": 0.657}, {"measurement": "relative viability", "setting": "Palbociclib + Trametinib; first compound 0.03162 µM", "result": 0.364}, {"measurement": "relative viability", "setting": "Palbociclib + Trametinib; first compound 0.1 µM", "result": 0.357}, {"measurement": "relative viability", "setting": "Palbociclib + Trametinib; first compound 0.3162 µM", "result": 0.45}, {"measurement": "relative viability", "setting": "Palbociclib + Trametinib; first compound 1 µM", "result": 0.406}, {"measurement": "relative viability", "setting": "Palbociclib + Olaparib; first compound 0.01 µM", "result": 0.679}, {"measurement": "relative viability", "setting": "Palbociclib + Olaparib; first compound 0.03162 µM", "result": 0.71}, {"measurement": "relative viability", "setting": "Palbociclib + Olaparib; first compound 0.1 µM", "result": 0.518}, {"measurement": "relative viability", "setting": "Palbociclib + Olaparib; first compound 0.3162 µM", "result": 0.587}, {"measurement": "relative viability", "setting": "Palbociclib + Olaparib; first compound 1 µM", "result": 0.37}, {"measurement": "relative viability", "setting": "Palbociclib + OSI-027; first compound 0.01 µM", "result": 0.264}, {"measurement": "relative viability", "setting": "Palbociclib + OSI-027; first compound 0.1 µM", "result": 0.256}, {"measurement": "relative viability", "setting": "Palbociclib + OSI-027; first compound 0.3162 µM", "result": 0.27}, {"measurement": "relative viability", "setting": "Palbociclib + OSI-027; first compound 1 µM", "result": 0.251}, {"measurement": "relative viability", "setting": "Palbociclib + AZD7762; first compound 0.01 µM", "result": 0.841}, {"measurement": "relative viability", "setting": "Palbociclib + AZD7762; first compound 0.03162 µM", "result": 0.436}, {"measurement": "relative viability", "setting": "Palbociclib + AZD7762; first compound 0.1 µM", "result": 0.598}, {"measurement": "relative viability", "setting": "Palbociclib + AZD7762; first compound 0.3162 µM", "result": 0.657}, {"measurement": "relative viability", "setting": "Palbociclib + AZD7762; first compound 1 µM", "result": 0.56}, {"measurement": "relative viability", "setting": "Palbociclib + Tozasertib; first compound 0.01 µM", "result": 0.585}, {"measurement": "relative viability", "setting": "Palbociclib + Tozasertib; first compound 0.1 µM", "result": 0.405}, {"measurement": "relative viability", "setting": "Palbociclib + Tozasertib; first compound 0.3162 µM", "result": 0.526}, {"measurement": "relative viability", "setting": "Palbociclib + Tozasertib; first compound 1 µM", "result": 0.175}, {"measurement": "relative viability", "setting": "Palbociclib + Pemetrexed; first compound 0.01 µM", "result": 0.76}, {"measurement": "relative viability", "setting": "Palbociclib + Pemetrexed; first compound 0.03162 µM", "result": 0.549}, {"measurement": "relative viability", "setting": "Palbociclib + Pemetrexed; first compound 0.1 µM", "result": 0.562}, {"measurement": "relative viability", "setting": "Palbociclib + Pemetrexed; first compound 0.3162 µM", "result": 0.582}, {"measurement": "relative viability", "setting": "Palbociclib + Pemetrexed; first compound 1 µM", "result": 0.411}, {"measurement": "relative viability", "setting": "Palbociclib + Vorinostat; first compound 0.01 µM", "result": 0.869}, {"measurement": "relative viability", "setting": "Palbociclib + Vorinostat; first compound 0.03162 µM", "result": 0.426}, {"measurement": "relative viability", "setting": "Palbociclib + Vorinostat; first compound 0.1 µM", "result": 0.386}, {"measurement": "relative viability", "setting": "Palbociclib + Vorinostat; first compound 0.3162 µM", "result": 0.388}, {"measurement": "relative viability", "setting": "Palbociclib + Vorinostat; first compound 1 µM", "result": 0.398}, {"measurement": "relative viability", "setting": "Palbociclib + Decitabine; first compound 0.01 µM", "result": 0.651}, {"measurement": "relative viability", "setting": "Palbociclib + Decitabine; first compound 0.03162 µM", "result": 0.376}, {"measurement": "relative viability", "setting": "Palbociclib + Decitabine; first compound 0.1 µM", "result": 0.445}, {"measurement": "relative viability", "setting": "Palbociclib + Decitabine; first compound 0.3162 µM", "result": 0.511}, {"measurement": "relative viability", "setting": "Palbociclib + Decitabine; first compound 1 µM", "result": 0.339}]}, {"cell line": "NCI-H1623", "values": [{"measurement": "relative viability", "setting": "Palbociclib; 0.01 µM", "result": 1.16}, {"measurement": "relative viability", "setting": "Palbociclib; 0.03162 µM", "result": 0.885}, {"measurement": "relative viability", "setting": "Palbociclib; 0.1 µM", "result": 0.918}, {"measurement": "relative viability", "setting": "Palbociclib; 0.3162 µM", "result": 0.951}, {"measurement": "relative viability", "setting": "Palbociclib; 1 µM", "result": 0.686}, {"measurement": "relative viability", "setting": "Palbociclib + OSI-027; first compound 0.01 µM", "result": 0.488}, {"measurement": "relative viability", "setting": "Palbociclib + OSI-027; first compound 0.03162 µM", "result": 0.512}, {"measurement": "relative viability", "setting": "Palbociclib + OSI-027; first compound 0.1 µM", "result": 0.448}, {"measurement": "relative viability", "setting": "Palbociclib + OSI-027; first compound 0.3162 µM", "result": 0.398}, {"measurement": "relative viability", "setting": "Palbociclib + OSI-027; first compound 1 µM", "result": 0.364}, {"measurement": "relative viability", "setting": "Palbociclib + Luminespib; first compound 0.01 µM", "result": 0.496}, {"measurement": "relative viability", "setting": "Palbociclib + Luminespib; first compound 0.03162 µM", "result": 0.473}, {"measurement": "relative viability", "setting": "Palbociclib + Luminespib; first compound 0.1 µM", "result": 0.587}, {"measurement": "relative viability", "setting": "Palbociclib + Luminespib; first compound 0.3162 µM", "result": 0.463}, {"measurement": "relative viability", "setting": "Palbociclib + Luminespib; first compound 1 µM", "result": 0.463}, {"measurement": "relative viability", "setting": "Palbociclib + Tozasertib; first compound 0.01 µM", "result": 0.481}, {"measurement": "relative viability", "setting": "Palbociclib + Tozasertib; first compound 0.03162 µM", "result": 0.48}, {"measurement": "relative viability", "setting": "Palbociclib + Tozasertib; first compound 0.1 µM", "result": 0.476}, {"measurement": "relative viability", "setting": "Palbociclib + Tozasertib; first compound 0.3162 µM", "result": 0.417}, {"measurement": "relative viability", "setting": "Palbociclib + Tozasertib; first compound 1 µM", "result": 0.37}, {"measurement": "relative viability", "setting": "Palbociclib + Foretinib; first compound 0.01 µM", "result": 0.97}, {"measurement": "relative viability", "setting": "Palbociclib + Foretinib; first compound 0.03162 µM", "result": 0.741}, {"measurement": "relative viability", "setting": "Palbociclib + Foretinib; first compound 0.1 µM", "result": 0.867}, {"measurement": "relative viability", "setting": "Palbociclib + Foretinib; first compound 0.3162 µM", "result": 0.994}, {"measurement": "relative viability", "setting": "Palbociclib + Foretinib; first compound 1 µM", "result": 0.64}, {"measurement": "relative viability", "setting": "Palbociclib + Dasatinib; first compound 0.01 µM", "result": 0.551}, {"measurement": "relative viability", "setting": "Palbociclib + Dasatinib; first compound 0.03162 µM", "result": 0.473}, {"measurement": "relative viability", "setting": "Palbociclib + Dasatinib; first compound 0.1 µM", "result": 0.517}, {"measurement": "relative viability", "setting": "Palbociclib + Dasatinib; first compound 0.3162 µM", "result": 0.546}, {"measurement": "relative viability", "setting": "Palbociclib + Dasatinib; first compound 1 µM", "result": 0.453}, {"measurement": "relative viability", "setting": "Palbociclib + Phenformin; first compound 0.01 µM", "result": 0.602}, {"measurement": "relative viability", "setting": "Palbociclib + Phenformin; first compound 0.03162 µM", "result": 0.534}, {"measurement": "relative viability", "setting": "Palbociclib + Phenformin; first compound 0.1 µM", "result": 0.628}, {"measurement": "relative viability", "setting": "Palbociclib + Phenformin; first compound 0.3162 µM", "result": 0.615}, {"measurement": "relative viability", "setting": "Palbociclib + Phenformin; first compound 1 µM", "result": 0.496}]}]}
